Source: the supplement of paper PMC10307832

Columns and labels:
Experiment in all cases: relative viability (nuclei count vs DMSO), 5 days (fraction); higher = more cells survive
Lapatinib = compound: CS(=O)(=O)CCNCc1ccc(-c2ccc3ncnc(Nc4ccc(OCc5cccc(F)c5)c(Cl)c4)c3c2)o1 [Lapatinib]
Method in brief: (§1)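 Following overnight incubation at 37 °C, lung cancer cell lines in 1536-well plates were pinned with five library-drug doses (not always all listed) in √10 steps on vehicle-anchored plates. The cells then spent 5 days without medium change before a combined fix, permeabilisation and Hoechst stain, 4× imaging and MetaXpress nuclear counts. Viability is the treated-to-vehicle ratio of nuclei, taken as the median across plates. Only plates with control CV below 25% and at least one doubling passed.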

Wnt-C59 = compound: CC1=NC=CC(=C1)C2=CC=C(C=C2)CC(=O)NC3=CC=C(C=C3)C4=CN=CC=C4 [Wnt-C59]
Method in brief: as §1

Wnt-C59 + OSI-027 = compound: CC1=NC=CC(=C1)C2=CC=C(C=C2)CC(=O)NC3=CC=C(C=C3)C4=CN=CC=C4 [Wnt-C59] + COc1cccc2cc(-c3nc([C@H]4CC[C@H](C(=O)O)CC4)n4ncnc(N)c34)[nH]c12 [OSI-027] (partner 0.5 µM)
Method in brief: (§2)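 Each reported value is a median over duplicate plates. It expresses relative viability: treated-well nuclei count divided by vehicle-well nuclei count. Lung cancer cell lines in 1536-well plates were dosed by pin tool a day after seeding, alone with one drug or with a fixed anchor-drug dose plus five library-drug doses (not always all listed) in √10 steps, and nuclei were counted after 5 days.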

Wnt-C59 + Luminespib = compound: CC1=NC=CC(=C1)C2=CC=C(C=C2)CC(=O)NC3=CC=C(C=C3)C4=CN=CC=C4 [Wnt-C59] + CCNC(=O)c1noc(-c2cc(C(C)C)c(O)cc2O)c1-c1ccc(CN2CCOCC2)cc1 [Luminespib] (partner 0.01 µM)
Method in brief: as §2

Cell Line	relative viability (Lapatinib; 0.02 µM)	relative viability (Lapatinib; 0.06325 µM)	relative viability (Lapatinib; 0.2 µM)	relative viability (Lapatinib; 0.6325 µM)	relative viability (Lapatinib; 2 µM)	relative viability (Lapatinib; 2 µM, anchor plate)	relative viability (Wnt-C59; 0.001 µM)	relative viability (Wnt-C59; 0.01 µM)	relative viability (Wnt-C59; 0.03162 µM)	relative viability (Wnt-C59; 0.1 µM)	relative viability (Wnt-C59 + OSI-027; first compound 0.001 µM)	relative viability (Wnt-C59 + OSI-027; first compound 0.01 µM)	relative viability (Wnt-C59 + OSI-027; first compound 0.03162 µM)	relative viability (Wnt-C59 + OSI-027; first compound 0.1 µM)	relative viability (Wnt-C59 + Luminespib; first compound 0.001 µM)	relative viability (Wnt-C59 + Luminespib; first compound 0.01 µM)	relative viability (Wnt-C59 + Luminespib; first compound 0.03162 µM)	relative viability (Wnt-C59 + Luminespib; first compound 0.1 µM)
HARA	0.52	0.749	0.943	0.93	0.755	0.77	0.952	0.874	1.19	1.02	0.478	0.337	0.64	0.518	0.662	0.557	0.721	0.65
EBC-1	0.993	0.979	0.945	0.971	–	–	1.08	0.995	1.02	0.904	–	–	–	–	–	–	–	–
PC-3 [JPC-3]	–	1	0.991	0.977	0.755	0.46	1.04	1.06	1.05	1.14	0.83	0.738	0.83	0.773	0.782	0.817	0.913	0.696
SK-MES-1	0.94	0.902	0.886	0.776	0.462	0.497	1.01	1.05	1.06	0.993	0.673	0.54	0.666	0.567	0.88	0.792	0.78	0.739
Calu-6	0.972	0.971	1.02	1.03	0.926	1.04	1.02	1.01	1.05	0.987	–	–	–	–	–	–	–	–
NCI-H838	0.954	0.82	0.97	0.947	0.897	0.992	0.981	0.985	0.964	0.995	0.435	0.385	0.331	0.411	0.279	0.347	0.311	0.303
NCI-H2009	1.01	0.978	1.02	1.01	1	0.84	0.997	0.999	1	0.992	0.699	0.701	0.695	0.64	1.04	0.976	1.07	0.997
NCI-H647	0.776	0.897	0.767	1.02	0.806	1.06	0.914	1	0.934	0.946	0.644	0.763	0.779	0.676	0.145	0.175	0.149	0.166
NCI-H1993	0.903	–	0.928	0.873	0.745	0.837	0.86	0.751	1.04	0.909	0.582	–	0.57	0.544	0.862	–	0.948	0.365
LCLC-97TM1	–	–	1.08	1	1.03	1.01	1.04	0.908	1.07	1.06	0.581	0.512	0.667	0.502	0.756	0.763	0.616	0.742
